Test results reported in patent publication US5527778A, “Method for selective opening of abnormal brain tissue capillaries” (priority 1995, dated 1996).
Blank lines part the entries; values can stand above or below the compound they belong to. Residues, ends and D or L forms follow the SMILES beside them.

Legend:
brain tumor capillaries = details: intracarotid infusion of LTC4; cited from earlier work
RG-2 glioma [1] = experiment: Regional permeability (unidirectional transfer constant Ki) by quantitative autoradiography after intracarotid infusion; type: in vivo, Wistar rats
Experimental: An experimental brain tumor model was made using female Wistar rats and RG-2 glioma cells. The RG-2 glioma cell line was maintained in a monolayer culture in F12 medium with 10% calf serum. Female Wistar rats, each weighing 150 to 250 gm were anesthetized with intra peritoneal pentobarbital (30 mg/kg). Glial tumors were implanted into the right hemisphere by intracerebral injections of 1×10^5 RG-2 glioma cells in five μl of 1.2% methyl cellulose (F12 medium). One week after tumor implantation, the rats were used for the brain tumor model.
The rats were divided into two groups: a bradykinin group treated with intracarotid infusion of 10 […] of bradykinin or the control group treated with intracarotid infusion of saline. The effect of intracarotid infusion of bradykinin was compared to saline infusions by statistical analysis of the Ki values using ANOVA and Students T-Tests.
(§1) [^14 C] AIB and [^14 C] dextran were used for quantitative autoradiographic examination of regional permeability. One week after tumor implantation, the rats were again anesthetized and a polyethylene (PE-10) catheter was inserted retrograde throughout the external carotid artery to the common carotid artery bifurcation ipsilateral to the tumor. The external carotid artery was then ligated. One femoral artery was cannulated to monitor systemic blood pressure and the other femoral artery was cannulated to withdraw arterial blood. Body temperature was maintained at […] and arterial blood gas levels, blood pressure, hematocrit were monitored. Animals with abnormal physiological parameters were eliminated. After rat preparation, bradykinin (10 μg/kg/min in saline) or saline as control was infused into the right carotid artery at a rate of 53.3 μ/min for 15 minutes. Five minutes after the start of the intracarotid infusion, 100 μCi/Kg of the tracer was injected as an intravenous bolus. A peristaltic withdrawal pump was used to withdraw femoral arterial blood at a constant rate of 0.083 ml/min immediately after injection of tracer for determination of serum radioactivity. Fifteen minutes after the start of intracarotid infusions, the animals were killed by decapitation and the brains were rapidly removed and frozen.
Autoradiography was conducted as follows: the frozen brains were mounted onto pedestals with M-1 embedding matrix, and 20 μm coronal sections were cut into a cryotome. The sections were thawmounted onto cover slips, and autoradiograms were generated by coexposing the sections on Kodak XAR-5 film with tissue-calibrated ^14 C standards for 2 weeks. The sequential section was stained with hematoxylin for correlation of areas of histologically verified tumor with autoradiograms. The regional radioactivities were measured in tumor, brain surrounding the tumor (BST; areas at around 2 mm distance from the border of the tumor), ipsilateral cortex to tumor (ipsi cortex), contralateral cortex (contra cortex), ipsilateral white matter (ipsi WM), contralateral WM (contra WM), ipsilateral basal ganglia (ipsi BGG), and contralateral BGG (contra BGG). Quantitative analysis of the regional radioactivity was performed using a computer (Macintosh II) with a scanner (UMAX UC630) and the software, Image 1.45 (NIH). […]
The frozen brains were mounted onto pedestals with M-1 embedding matrix, and 20 μm coronal sections were cut with a cryotome. The sections were thaw-mounted onto cover slips, and autoradiograms were generated by co-exposing the sections on Kodak XAR-5 film with tissue-calibrated ^14 C standards for 2 weeks. The sequential section was stained with hematoxylin for correlation of areas of histologically verified tumor with autoradiograms. The regional radioactivity was measured in tumor, brain surrounding the tumor (BST; areas within 2 mm distance from the border of the tumor), ipsilateral cortex to tumor, contralateral cortex, ipsilateral white matter (WM), contralateral WM, ipsilateral basal ganglia (BG), and contralateral BG. […]

RG-2 glioma [2] = experiment: Blood volume in brain and tumor by graphic method using [14C] dextran; type: in vivo, Wistar rats; details: intracarotid bradykinin infusion
Experimental: The blood volume for the quantitative examination of permeability was calculated with a graphic method using [^14 C] dextran (MW 70,000). The blood volume in normal brain tissue and tumors were 4.5 and 9.15 μ/g, respectively (FIG. 1). The slopes were the unidirectional transfer constants, the Ki values (μl/g/min), in the two groups. […] The tumor blood volume was almost twice that of the normal brain tissue, but the brain and tumor blood volumes were not altered by intracarotid bradykinin infusion.
RMP-7 (at 1.5 μg/kg) or vehicle (control) was infused into the right carotid artery at a volume rate of 0.8 ml over 15 minutes (i.e. 53 μ/min). In blood volume studies, 100 μCi/kg of [^14 C] dextran was injected as an intravenous bolus at either 5, 10, 14 or 14.5 minutes after the start of the intracarotid infusion to make the circulation time of dextran 10, 5, 1, 0.5 minutes, respectively. […] A peristaltic withdrawal pump was used to withdraw femoral arterial blood at a constant rate of 0.083 ml/min immediately after the injection of the tracer for the determination of serum radioactivity. […]
The blood volume for the quantitative examination of permeability was calculated with a graphic method using [^14 C] dextran. […] Ki was similar in these experiments whether calculated using the graphic method or the method described by Ohno (25) and Ziylan (26).

[3] = design: species or system rats; details: rat, in vivo
Experimental: At infusion rates greater than 20 μg/kg/min the systemic blood pressure in the rats was reduced.
as §1
One week after tumor implantation, the rats were again anesthetized and a polyethylene (PE-10) catheter was inserted retrograde through the external carotid artery to the common carotid artery bifurcation ipsilateral to the tumor. The external carotid artery was then ligated. […] Body temperature was maintained at 37° C. and arterial blood gases, blood pressure, and hematocrit were monitored. […]
RMP-7 infused at a rate greater than 1.0 μg/kg/min (dissolved in phosphate buffer, pH 7.4) reduced systemic blood pressure in rats when given either intravenously or into the carotid artery. […] Physiological parameters, which included arterial blood pH, PaO2, were also monitored.

RG-2 glioma [4] = experiment: Microscopic analysis with intravenously injected horseradish peroxidase (HRP); type: in vivo, Wistar rats
Experimental: Microscopic analysis was performed using intravenously injected horseradish peroxidase (HRP) as described in (22). After rat preparation as previously described, bradykinin (10 μg/kg/min in saline) or saline as a control was injected into the fight carotid artery for 15 minutes. Five minutes after the start of the intracarotid infusion, 20 mg/100 g of horseradish peroxidase (HRP) was injected by an intravenous bolus. Ten minutes after the HRP injection, rats were perfused with a mixture of 2% glutaraldehyde and 2% formaldehyde in 0.1 sodium phosphate buffer solution at pH 7.4 through the heart. After fixation, the brains were removed and cut at 40 μm thickness on a vibratome. The sections were preincubated for 15 minutes at room temperature in the medium consisting of 10 ml 0.05 M-Tris-HCl buffer (pH 7.4), 3,3'-diaminobenzidine tetrahydrochloride and 0.02% hydrogen peroxide (Sigma). The sections were trimmed down to the areas of interests, post-fixed for 2 hours in 2% osmium tetroxide with 0.1M sodium phosphate, dehydrated, and embedded in plastic. Plastic sections 1 μm thick were observed under light microscopy.

RG-2 glioma [5] = experiment: Evans blue (EB-albumin) staining of tumor and brain after intracarotid infusion; type: in vivo, Wistar rats; details: intracarotid bradykinin infusion; 2 ml/kg of 2% EB i.v.
Experimental: After the intracarotid bradykinin infusion, the rat was perfused with 200 ml of phosphate buffer through the heart to wash out the remaining EB from the vessels. The brains were removed immediately and cut as coronal sections.
Since EB binds to serum albumin (MW 67,000) in blood and distributes with albumin in vivo, EB staining in the tissue indicates the distribution of albumin (4). In order to observe the extravasated EB and not the EB remaining in the vessels in the brain, the blood from the brain was washed out by perfusing the rats with phosphate buffer from the heart.
Six rats were used to examine whether RMP-7 could selectively deliver albumin to tumors. Evans blue (EB) was injected intravenously instead of radiolabeled tracers. After the preparation of rats, 2 ml/kg of 2% EB was injected intravenously instead of radiolabeled tracers. After the intracarotid RMP-7 (n=3) or vehicle (n=3) infusion, the rat was perfused with 200 ml of phosphate buffer through the heart to wash out the remaining EB from the vessels. The brains were removed immediately and cut as coronal sections.

[6] = system: brain capillary endothelial cells; details: nanomolar concentrations of bradykinin; cited from earlier work
[7] = rat, in vivo; cited from earlier work
normal brain capillary = details: in vivo; cited from earlier work
[8] = tumor, intracarotid bradykinin 10 μg/kg/min vs saline

Compound: CCCCC/C=C\C\C=C/C=C/C=C/[C@@H](SC[C@H](NC(=O)CC[C@H](N)C(=O)O)C(=O)NCC(=O)O)[C@@H](O)CCCC(=O)O [LTC4, leukotriene C4]
Effect on capillary permeability (brain tumor capillaries): selectively increases the permeability in brain tumor capillaries without affecting the permeability in normal brain capillaries

Compound: NC(N)=NCCC[C@H](NC(=O)[C@H](Cc1ccccc1)NC(=O)[C@@H]1CCCN1C(=O)[C@H](CO)NC(=O)[C@H](Cc1ccccc1)NC(=O)CNC(=O)[C@@H]1CCCN1C(=O)[C@@H]1CCCN1C(=O)[C@@H](N)CCCN=C(N)N)C(=O)O [bradykinin] (H-RPPGFSPFR-OH)
Ki value of the brain surrounding tumor (BST) for [14C] AIB (RG-2 glioma [1]; BST, 2 mm from tumor border, intracarotid bradykinin 10 μg/kg/min): 3.50 ± 1.29 µL/g/min
Ki values of brain regions without tumor, treated vs control (RG-2 glioma [1]; normal brain regions, intracarotid bradykinin 10 μg/kg/min): no significant differences
Ki value of the tumors for [14C] AIB (MW 103) (RG-2 glioma [1]; tumor, intracarotid bradykinin 10 μg/kg/min for 15 min): 25.91 ± 6.78 µL/g/min
Ki value of the tumors for [14C] dextran (MW 70,000) (RG-2 glioma [1]; tumor, intracarotid bradykinin 10 μg/kg/min for 15 min, mean±SD): 17.84 ± 1.00 µL/g/min
Ki of tumors for [14C] AIB, fold higher than control group (RG-2 glioma [1]; [8]): 1.8 fold
Ki of tumors for [14C] dextran, fold higher than control group (RG-2 glioma [1]; [8]): 12 fold
Brain and tumor blood volumes, change by infusion (RG-2 glioma [2]): not altered
Effect on systemic blood pressure [3]: did not alter systemic blood pressure
Infusion rate at which systemic blood pressure was reduced [3]: greater than 20 μg/kg/min
HRP extravasation in normal brain (RG-2 glioma [4]; normal brain, bradykinin 10 μg/kg/min intracarotid): no extravasation of HRP between cells
HRP stain in tumor (RG-2 glioma [4]; tumor, bradykinin 10 μg/kg/min intracarotid 15 min): well recognized in the extracellular space between tumor cells
Evans blue staining (RG-2 glioma [5]): well recognized in the tumor but not in the normal brain
Stimulation of uptake of Lucifer yellow [6]: 40%
Degradation of bradykinin in rats, time [7]: several hours
HRP around normal brain capillary at high dose (normal brain capillary): caused intravasation of HRP around the normal brain capillary

Systemic pressure when intravenous captopril infusion was used to enhance bradykinin effect ([3]; iv): hypotension occurred
Compound: C[C@H](CS)C(=O)N1CCC[C@H]1C(=O)O [captopril]
